Assay results from US20200069691A1, “HETEROCYCLIC COMPOUNDS AS HIV PROTEASE INHIBITORS” (Merck Sharp & Dohme Corp., priority 2016, published 2020).

Each molecule was assayed against T1, wild-type HIV-1 protease (Human immunodeficiency virus type 1 group M subtype B, UniProt P04585) (assay: Assay for Inhibition of Microbial Expressed HIV Protease (peptide substrate cleavage, LC-MS/MS readout)). Conditions: E. coli expressed wild-type HIV-1 protease, mean of at least two independent experiments, read-out: HIV Pr Enzyme HIV1 PR IC50.
T1 construct: Escherichia coli expressed wild-type HIV-1 protease protein
Format: biochemical
Procedure, shortened: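 Cleavage of Val-Ser-Gln-Asn-(β-naphthyl)Ala-Pro-Ile-Val (400 μM) by recombinant HIV-1 protease ([…]) ran 1 h at 30 °C after a 30 min room-temperature inhibitor preincubation in 50 mM sodium acetate pH 5.5. Product peak areas by LC-MS/MS gave inhibition; values average at least two independent runs.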
`CC(C)(C)NC(=O)c1nnc2n1CCN(C(=O)c1cccc(CN3C(=N)NC(c4ccccc4)(c4ccccc4)C3=O)c1)C2` [Compound 361, N-tert-butyl-7-({3-[(2-imino-5-oxo-4,4-diphenylimidazolidin-1-yl)methyl]phenyl}carbonyl)-5,6,7,8-tetrahydro[1,2,4]triazolo[4,3-a]pyrazine-3-carboxamide] was tested, and the IC50 was 96.1 nM. Molecule `N=C1N[C@](CCCC(F)(F)F)(c2ccc(F)cc2)C(=O)N1Cc1ccc(C(F)(F)F)c(C(=O)N2Cc3cnc(NC4CCCC4)nc3C2)c1` [Compound 71, (5R)-3-[3-{[2-(cyclopentylamino)-5,7-dihydro-6H-pyrrolo[3,4-d]pyrimidin-6-yl]carbonyl}-4-(trifluoromethyl)benzyl]-5-(4-fluorophenyl)-2-imino-5-(4,4,4-trifluorobutyl)imidazolidin-4-one] has an IC50 of 9.19 nM. `N=C1NC(c2ccccc2)(c2ccccc2)C(=O)N1Cc1cccc(C(=O)N2CCc3nccnc3C2)c1` [Compound 295, 3-[3-(7,8-dihydropyrido[3,4-b]pyrazin-6(5H)-ylcarbonyl)benzyl]-2-imino-5,5-diphenylimidazolidin-4-one] gave an IC50 of 40.1 nM. `CN(C)C(=O)N1CCN(C(=O)c2cccc(CN3C(=N)NC(c4ccccc4)(c4ccccc4)C3=O)c2)CC1` [Compound 357, 4-({3-[(2-imino-5-oxo-4,4-diphenylimidazolidin-1-yl)methyl]phenyl}carbonyl)-N,N-dimethylpiperazine-1-carboxamide] showed an IC50 of 91.2 nM. For `C[C@@H](c1cccc(C(=O)N2Cc3ccccc3C2)c1)N1C(=N)NC(c2ccccc2)(c2ccccc2)C1=O` [Compound 331, 3-{(1S)-1-[3-(1,3-dihydro-2H-isoindol-2-ylcarbonyl)phenyl]ethyl}-2-imino-5,5-diphenylimidazolidin-4-one], the IC50 was 67.6 nM. Molecule `N=C1NC(c2ccc(F)cc2)(c2cccc(C(N)=O)c2)C(=O)N1Cc1cccc(C(=O)N2Cc3ccccc3C2)c1` (centres unmarked) [Compound 294, 3-{1-[3-(1,3-dihydro-2H-isoindol-2-ylcarbonyl)benzyl]-4-(4-fluorophenyl)-2-imino-5-oxoimidazolidin-4-yl}benzamide] has an IC50 of 39.8 nM. Work on `N=C1N[C@](CCCC(F)(F)F)(c2ccc(F)cc2)C(=O)N1Cc1ccc(C(F)(F)F)c(C(=O)N2CCN(c3cccnc3)CC2)c1` [Compound 108, (5R)-5-(4-fluorophenyl)-2-imino-3-{3-[(4-pyridin-3-ylpiperazin-1-yl)carbonyl]-4-(trifluoromethyl)-benzyl}-5-(4,4,4-trifluorobutyl)-imidazolidin-4-one] yielded an IC50 of 26.1 nM. Work on `CC(C)CCC1(c2ccccc2)NC(=N)N(Cc2cccc(C(=O)N3Cc4cccnc4C3)c2)C1=O` (centres unmarked) [Compound 218, 3-[3-(5,7-dihydro-6H-pyrrolo[3,4-b]pyridin-6-ylcarbonyl)benzyl]-2-imino-5-(3-methylbutyl)-5-phenylimidazolidin-4-one] yielded an IC50 of 10.5 nM. Molecule `N=C1NC(CCC2CC2)(c2cc(F)cc(F)c2)C(=O)N1Cc1ccc(C(F)(F)F)c(C(=O)N2CCn3c(nnc3C(F)(F)F)C2)c1` (centres unmarked) [Compound 82, 5-(2-cyclopropylethyl)-5-(3,5-difluorophenyl)-2-imino-3-[4-(trifluoromethyl)-3-{[3-(trifluoro-methyl)-5,6-dihydro-[1,2,4]triazolo-[4,3-a]pyrazin-7(8H)-yl]carbonyl}-benzyl]imidazolidin-4-one] has an IC50 of 13.1 nM. `CC(C)CCC1(c2ccc(F)cc2)NC(=N)N(Cc2cccc(C(=O)N3Cc4nccnc4C3)c2)C1=O` (centres unmarked) [Compound 252, 3-[3-(5,7-dihydro-6H-pyrrolo[3,4-b]pyrazin-6-ylcarbonyl)benzyl]-5-(4-fluorophenyl)-2-imino-5-(3-methylbutyl)imidazolidin-4-one] was tested, and the IC50 was 19.8 nM. Molecule `COC(=O)C1c2ccccc2CN1C(=O)c1cccc(CN2C(=N)NC(c3ccccc3)(c3ccccc3)C2=O)c1` (centres unmarked) [Compound 287, methyl 2-({3-[(2-imino-5-oxo-4,4-diphenylimidazolidin-1-yl)methyl]phenyl}carbonyl)-2,3-dihydro-1H-isoindole-1-carboxylate] has an IC50 of 33.9 nM.
